Experiments:
Format in all cases: functional
[1] = system: Avena sterilis; experiment: Herbicidal activity against Avena sterilis accession P16 assessed as weed survival at 1 times field recommended herbicide dose
[2] = system: Avena sterilis; experiment: Herbicidal activity against Avena sterilis accession P14 assessed as weed survival at 8 times field recommended herbicide dose
[3] = system: Avena sterilis; experiment: Herbicidal activity against Avena sterilis accession P09 assessed as weed survival at 32 times field recommended herbicide dose
[4] = system: Avena sterilis; experiment: Herbicidal activity against Avena sterilis accession P14 assessed as weed survival at 4 times field recommended herbicide dose
[5] = system: Avena sterilis; experiment: Herbicidal activity against Avena sterilis accession P09 assessed as weed survival at 1 times field recommended herbicide dose
[6] = system: Avena sterilis; experiment: Herbicidal activity against Avena sterilis accession P13S assessed as weed survival at 1/8 times field recommended herbicide dose
[7] = system: Avena sterilis; experiment: Herbicidal activity against Avena sterilis accession P14 assessed as induction of weed mortality
[8] = system: Avena sterilis; experiment: Herbicidal activity against Avena sterilis accession P14 assessed as weed survival at 16 times field recommended herbicide dose
[9] = system: Avena sterilis; experiment: Herbicidal activity against Avena sterilis accession P09 assessed as induction of weed mortality
[10] = system: Avena sterilis; experiment: Herbicidal activity against Avena sterilis accession P03 assessed as weed survival at 4 times field recommended herbicide dose
[11] = system: Avena sterilis; experiment: Herbicidal activity against Avena sterilis accession P20 assessed as induction of weed mortality
[12] = system: Avena sterilis; experiment: Herbicidal activity against Avena sterilis accession P15 assessed as induction of weed mortality
[13] = system: Avena sterilis; experiment: Herbicidal activity against Avena sterilis accession P21S assessed as weed survival at 1 times field recommended herbicide dose
[14] = system: Avena sterilis; experiment: Herbicidal activity against Avena sterilis accession P03 assessed as induction of weed mortality
[15] = system: Avena sterilis; experiment: Herbicidal activity against Avena sterilis accession P09 assessed as weed survival at 16 times field recommended herbicide dose
[16] = system: Avena sterilis; experiment: Herbicidal activity against Avena sterilis accession P07 assessed as weed survival at 4 times field recommended herbicide dose
[17] = system: Avena sterilis; experiment: Herbicidal activity against Avena sterilis accession P08 assessed as weed survival at 1 times field recommended herbicide dose
[18] = system: Avena sterilis; experiment: Herbicidal activity against Avena sterilis accession P22 assessed as weed survival at 8 times field recommended herbicide dose
[19] = system: Avena sterilis; experiment: Herbicidal activity against Avena sterilis accession P03 assessed as weed survival at 1 times field recommended herbicide dose
[20] = system: Avena sterilis; experiment: Herbicidal activity against Avena sterilis accession P17 assessed as weed survival at 32 times field recommended herbicide dose
[21] = system: Avena sterilis; experiment: Herbicidal activity against Avena sterilis accession P12 assessed as weed survival at 32 times field recommended herbicide dose
[22] = system: Avena sterilis; experiment: Herbicidal activity against Avena sterilis accession P15 assessed as weed survival at 16 times field recommended herbicide dose
[23] = system: Avena sterilis; experiment: Herbicidal activity against Avena sterilis accession P09 assessed as weed survival at 8 times field recommended herbicide dose
[24] = system: Avena sterilis; experiment: Herbicidal activity against Avena sterilis accession P01 assessed as weed survival at 8 times field recommended herbicide dose
[25] = system: Avena sterilis; experiment: Herbicidal activity against Avena sterilis accession P18 assessed as weed survival at 8 times field recommended herbicide dose
[26] = system: Avena sterilis; experiment: Herbicidal activity against Avena sterilis accession P12 assessed as weed survival at 4 times field recommended herbicide dose
[27] = system: Avena sterilis; experiment: Herbicidal activity against Avena sterilis accession P14 assessed as weed survival at 32 times field recommended herbicide dose
[28] = system: Avena sterilis; experiment: Herbicidal activity against Avena sterilis accession P17 assessed as induction of weed mortality
[29] = system: Avena sterilis; experiment: Herbicidal activity against Avena sterilis accession P20 assessed as weed survival at 16 times field recommended herbicide dose
[30] = system: Avena sterilis; experiment: Herbicidal activity against Avena sterilis accession P05 assessed as weed survival at 8 times field recommended herbicide dose
[31] = system: Avena sterilis; experiment: Herbicidal activity against Avena sterilis accession P12 assessed as weed survival at 8 times field recommended herbicide dose
[32] = system: Avena sterilis; experiment: Herbicidal activity against Avena sterilis accession P15 assessed as weed survival at 32 times field recommended herbicide dose
[33] = system: Avena sterilis; experiment: Herbicidal activity against Avena sterilis accession P07 assessed as induction of weed mortality
[34] = system: Avena sterilis; experiment: Herbicidal activity against Avena sterilis accession P05 assessed as weed survival at 4 times field recommended herbicide dose
[35] = system: Avena sterilis; experiment: Herbicidal activity against Avena sterilis accession P05 assessed as weed survival at 1 times field recommended herbicide dose
[36] = system: Avena sterilis; experiment: Herbicidal activity against Avena sterilis accession P18 assessed as induction of weed mortality
[37] = system: Avena sterilis; experiment: Herbicidal activity against Avena sterilis accession P20 assessed as weed survival at 1 times field recommended herbicide dose
[38] = system: Avena sterilis; experiment: Herbicidal activity against Avena sterilis accession P22 assessed as weed survival at 4 times field recommended herbicide dose
[39] = system: Avena sterilis; experiment: Herbicidal activity against Avena sterilis accession P13S assessed as weed survival at 1/32 times field recommended herbicide dose
[40] = system: Avena sterilis; experiment: Herbicidal activity against Avena sterilis accession P10S assessed as induction of weed mortality
[41] = system: Avena sterilis; experiment: Herbicidal activity against Avena sterilis accession P07 assessed as weed survival at 1 times field recommended herbicide dose
[42] = system: Avena sterilis; experiment: Herbicidal activity against Avena sterilis accession P06S assessed as weed survival at 1/16 times field recommended herbicide dose
[43] = system: Avena sterilis; experiment: Herbicidal activity against Avena sterilis accession P16 assessed as induction of weed mortality
[44] = system: Avena sterilis; experiment: Herbicidal activity against Avena sterilis accession P05 assessed as weed survival at 32 times field recommended herbicide dose
[45] = system: Avena sterilis; experiment: Herbicidal activity against Avena sterilis accession P02 assessed as induction of weed mortality
[46] = system: Avena sterilis; experiment: Herbicidal activity against Avena sterilis accession P12 assessed as weed survival at 1 times field recommended herbicide dose
[47] = system: Avena sterilis; experiment: Herbicidal activity against Avena sterilis accession P04 assessed as weed survival at 4 times field recommended herbicide dose
[48] = system: Avena sterilis; experiment: Herbicidal activity against Avena sterilis accession P19S assessed as weed survival at 1/32 times field recommended herbicide dose
[49] = system: Avena sterilis; experiment: Herbicidal activity against Avena sterilis accession P10S assessed as weed survival at 1/32 times field recommended herbicide dose
[50] = system: Avena sterilis; experiment: Herbicidal activity against Avena sterilis accession P10S assessed as weed survival at 1/4 times field recommended herbicide dose
[51] = system: Avena sterilis; experiment: Herbicidal activity against Avena sterilis accession P13S assessed as weed survival at 1 times field recommended herbicide dose
[52] = system: Avena sterilis; experiment: Herbicidal activity against Avena sterilis accession P06S assessed as induction of weed mortality
[53] = system: Avena sterilis; experiment: Herbicidal activity against Avena sterilis accession P10S assessed as weed survival at 1/16 times field recommended herbicide dose
[54] = system: Avena sterilis; experiment: Herbicidal activity against Avena sterilis accession P13S assessed as weed survival at 1/4 times field recommended herbicide dose
[55] = system: Avena sterilis; experiment: Herbicidal activity against Avena sterilis accession P03 assessed as weed survival at 8 times field recommended herbicide dose
[56] = system: Avena sterilis; experiment: Herbicidal activity against Avena sterilis accession P01 assessed as weed survival at 4 times field recommended herbicide dose
[57] = system: Avena sterilis; experiment: Herbicidal activity against Avena sterilis accession P20 assessed as weed survival at 8 times field recommended herbicide dose
[58] = system: Avena sterilis; experiment: Herbicidal activity against Avena sterilis accession P02 assessed as weed survival at 32 times field recommended herbicide dose

C#CCOC(=O)[C@@H](C)Oc1ccc(Oc2ncc(Cl)cc2F)cc1 [CLODINAFOP PROPARGYL]
Survival [1]: 93% | Survival [2]: 80% | Survival [3]: 0% | Survival [4]: 87% | Survival [5]: 63% | Survival [6]: 63% | GR50 [7]: 1219 gAi/ha | Survival [8]: 77% | GR50 [9]: 46 gAi/ha | Survival [10]: 100% | GR50 [11]: 508 gAi/ha | GR50 [12]: >1312 gAi/ha | Survival [13]: 0% | GR50 [14]: >1312 gAi/ha | Survival [15]: 0% | Survival [16]: 0% | Survival [17]: 100% | Survival [18]: 20% | Survival [19]: 100% | Survival [20]: 20% | Survival [21]: 83% | Survival [22]: 97% | Survival [23]: 0% | Survival [24]: 80% | Survival [25]: 73% | Survival [26]: 97% | Survival [27]: 43% | GR50 [28]: 283 gAi/ha | Survival [29]: 57% | Survival [30]: 40% | Survival [31]: 100% | Survival [32]: 93% | GR50 [33]: <41 gAi/ha | Survival [34]: 47% | Survival [35]: 90% | GR50 [36]: 520 gAi/ha | Survival [37]: 93% | Survival [38]: 43% | Survival [39]: 80% | GR50 [40]: 8 gAi/ha | Survival [41]: 13% | Survival [42]: 97% | GR50 [43]: 169 gAi/ha | Survival [44]: 0% | GR50 [45]: >1312 gAi/ha | Survival [46]: 100% | Survival [47]: 100% | Survival [48]: 100% | Survival [49]: 83% | Survival [50]: 40% | Survival [51]: 0% | GR50 [52]: 9 gAi/ha | Survival [53]: 80% | Survival [54]: 10% | Survival [55]: 97% | Survival [56]: 87% | Survival [57]: 60% | Survival [58]: 87%

COC(=O)C(C)Oc1ccc(Oc2ccc(Cl)cc2Cl)cc1 (stereo unspecified) [DICLOFOP-METHYL]
Survival [1]: 80% | Survival [2]: 60% | Survival [3]: 40% | Survival [4]: 77% | Survival [5]: 100% | Survival [6]: 83% | GR50 [7]: 11045 gAi/ha | Survival [8]: 50% | GR50 [9]: 14176 gAi/ha | Survival [10]: 93% | GR50 [11]: >22740 gAi/ha | GR50 [12]: >22740 gAi/ha | Survival [13]: 27% | GR50 [14]: 13359 gAi/ha | Survival [15]: 53% | Survival [16]: 60% | Survival [17]: 97% | Survival [18]: 40% | Survival [19]: 100% | Survival [20]: 20% | Survival [21]: 63% | Survival [22]: 83% | Survival [23]: 73% | Survival [24]: 80% | Survival [25]: 60% | Survival [26]: 80% | Survival [27]: 37% | GR50 [28]: 8389 gAi/ha | Survival [29]: 80% | Survival [30]: 40% | Survival [31]: 80% | Survival [32]: 80% | GR50 [33]: 3737 gAi/ha | Survival [34]: 70% | Survival [35]: 100% | GR50 [36]: 10199 gAi/ha | Survival [37]: 100% | Survival [38]: 63% | Survival [39]: 100% | GR50 [40]: 506 gAi/ha | Survival [41]: 100% | Survival [42]: 100% | GR50 [43]: 5442 gAi/ha | Survival [44]: 20% | GR50 [45]: >22740 gAi/ha | Survival [46]: 80% | Survival [47]: 97% | Survival [48]: 100% | Survival [49]: 100% | Survival [50]: 90% | Survival [51]: 40% | GR50 [52]: 548 gAi/ha | Survival [53]: 97% | Survival [54]: 80% | Survival [55]: 60% | Survival [56]: 87% | Survival [57]: 80% | Survival [58]: 53%
